Results published in ChEMBL document CHEMBL6134848, “Deuteration Strategy-Inspired Design of Novel Diarylpyrimidine Derivatives as Potent Non-Nucleoside Reverse Transcriptase Inhibitors Featuring Improved Efficacy, Selectivity, and Druggability” (J Med Chem, 2025).

Tests used:
[1] = system: Human immunodeficiency virus 1; assay: Antiviral activity against drug-resistant HIV-1 harboring RT Y181C mutant infected in human MT4 cells assessed as protection against virus-induced cytopathicity measured after 5 days post-infection by MTT assay; type: functional, organism-based; details: Human immunodeficiency virus 1, MT4, 120 h
[2] = system: Human immunodeficiency virus 1; assay: Antiviral activity against drug-resistant HIV-1 harboring RT F227L/V106A mutant infected in human MT4 cells assessed as protection against virus-induced cytopathicity measured after 5 days post-infection by MTT assay; type: functional, organism-based; details: Human immunodeficiency virus 1, MT4, 120 h
[3] = system: Human immunodeficiency virus 1; assay: Antiviral activity against wild-type HIV-1 IIIB infected in human MT4 cells assessed as protection against virus-induced cytopathicity measured after 5 days post-infection by MTT assay; type: functional, organism-based; details: Human immunodeficiency virus 1, IIIB, MT4, 120 h
[4] = system: Human immunodeficiency virus 1; assay: Antiviral activity against drug-resistant HIV-1 harboring RT Y188L mutant infected in human MT4 cells assessed as protection against virus-induced cytopathicity measured after 5 days post-infection by MTT assay; type: functional, organism-based; details: Human immunodeficiency virus 1, MT4, 120 h
[5] = Selectivity index, ratio of CC50 for cytotoxicity against human MT4 cells to EC50 for antiviral activity against wild-type HIV-1 IIIB infected in human MT4 cells; type: toxicity, cell-based; details: read-out: Ratio CC50/EC50
[6] = system: Human immunodeficiency virus 1; assay: Antiviral activity against drug-resistant HIV-1 harboring RT L100I mutant infected in human MT4 cells assessed as protection against virus-induced cytopathicity measured after 5 days post-infection by MTT assay; type: functional, organism-based; details: Human immunodeficiency virus 1, MT4, 120 h
[7] = system: Human immunodeficiency virus 1; assay: Antiviral activity against drug-resistant HIV-1 harboring RT E138K mutant infected in human MT4 cells assessed as protection against virus-induced cytopathicity measured after 5 days post-infection by MTT assay; type: functional, organism-based; details: Human immunodeficiency virus 1, MT4, 120 h
[8] = molecular target: Human immunodeficiency virus type 1 reverse transcriptase (Human immunodeficiency virus 1, UniProt Q72547); assay: Inhibition of recombinant wild type HIV-1 reverse transcriptase incubated for 40 mins in presence of poly(rA) template/oligo(dT)16 primer by Pico-Green dye based analysis
[9] = system: Human immunodeficiency virus 1; assay: Antiviral activity against drug-resistant HIV-1 harboring RT K103N mutant infected in human MT4 cells assessed as protection against virus-induced cytopathicity measured after 5 days post-infection by MTT assay; type: functional, organism-based; details: Human immunodeficiency virus 1, MT4, 120 h
[10] = Cytotoxicity against human MT4 cells assessed as reduction in cell viability by MTT assay; type: toxicity, cell-based
[11] = system: Human immunodeficiency virus 1; assay: Antiviral activity against drug-resistant HIV-1 harboring RT RES056 mutant infected in human MT4 cells assessed as protection against virus-induced cytopathicity measured after 5 days post-infection by MTT assay; type: functional, organism-based; details: Human immunodeficiency virus 1, MT4, 120 h
[12] = Metabolic stability in human liver microsomes assessed as half life at 1 uM measured up to 45 mins by LC/MS/MS analysis; type: ADME, Microsome; details: liver microsomes
[13] = Stability in human plasma assessed as compound remaining at 1 uM measured after 3 hrs by LC-MS/MS analysis; type: ADME, cell-free; details: read-out: Stability
[14] = Stability in human plasma assessed as compound remaining at 1 uM measured immediately by LC-MS/MS analysis; type: ADME, cell-free; details: read-out: Stability

Row | SMILES | EC50 [1] [nM] | EC50 [2] [nM] | EC50 [3] [nM] | EC50 [4] [nM] | selectivity ratio [5] | EC50 [6] [nM] | EC50 [7] [nM] | IC50 [8] [nM] | EC50 [9] [nM] | CC50 [10] [nM] | EC50 [11] [nM] | half-life at 1 µM [12] [min] | remaining at 3 h, 1 µM [13] [%] | remaining at 0 h, 1 µM [14] [%]
1 | [2H]C([2H])([2H])c1cc(C#N)cc(C)c1Oc1nc(NC2CCN(Cc3ccc(C(N)=O)cc3)CC2)nc2sccc12 | 47.6 | 71.5 | 8.92 | 94.5 | > 27200 | 29.2 | 63.5 | 120 | 18.1 | > 242000 | 320 | – | – | –
2 | [2H]C([2H])([2H])c1cc(C#N)cc(C)c1Oc1nc(NC2CCN(Cc3ccc(S(N)(=O)=O)cc3)CC2)nc2ccsc12 | 12.1 | 9.97 | 5.77 | 12 | 31200 | 8.56 | 12.6 | 190 | 3.67 | 178000 | 217 | – | – | –
3 | [2H]C([2H])([2H])c1cc(C#N)cc(C)c1Oc1nc(NC2CCN(Cc3ccc(C(N)=O)cc3)CC2)nc2ccsc12 | 65.3 | 65.2 | 12.8 | 59.9 | > 18900 | 68.2 | 53.5 | 150 | 11.2 | > 242000 | 887 | – | – | –
4 | [2H]C([2H])([2H])c1cc(C#N)cc(C([2H])([2H])[2H])c1Oc1nc(NC2CCN(Cc3ccc(C(N)=O)cc3)CC2)nc2ccccc12 | 61.8 | 186 | 7.31 | 60.7 | 12300 | 32.9 | 38.1 | 210 | 23.6 | 90200 | 1390 | – | – | –
5 | [2H]C([2H])([2H])c1cc(C#N)cc(C)c1Oc1nc(NC2CCN(Cc3ccc(C(N)=O)cc3)CC2)nc2scnc12 | 10.4 | 103 | 2.03 | 52.9 | 10800 | 13.3 | 10.4 | 170 | 4.31 | 22000 | 143 | – | – | –
6 | [2H]C([2H])([2H])c1cc(C#N)cc(C([2H])([2H])[2H])c1Oc1nc(NC2CCN(Cc3ccc(C(N)=O)cc3)CC2)nc2scnc12 | 11.6 | 161 | 2.36 | 52.1 | 9130 | 12.8 | 11.3 | 160 | 2.79 | 21500 | 166 | – | – | –
7 | [2H]C([2H])([2H])c1cc(C#N)cc(C([2H])([2H])[2H])c1Oc1nc(NC2CCN(Cc3ccc(S(N)(=O)=O)cc3)CC2)nc2ccccc12 | 50.7 | 59.8 | 5.47 | 150 | 4440 | 16.8 | 37.4 | 230 | 8.7 | 24300 | 276 | – | – | –
8 | Cc1cc(-c2ccc(C#N)cc2)cc(C)c1Nc1ccnc(Nc2ccc(C#N)cc2)n1 | 7.26 | 796 | 1.86 | 40.5 | 3280 | 4.02 | 8.16 | 340 | 2.88 | 6110 | 54.3 | – | – | –
9 | [2H]C([2H])([2H])c1cc(/C=C/C#N)cc(C)c1Nc1ccnc(Nc2ccc(C#N)cc2)n1 | 2.71 | 69.8 | 1.17 | 72.6 | – | 2.3 | 4.6 | 30 | 1.96 | 6560 | 12.9 | 19.4 | – | –
10 | [2H]C([2H])([2H])c1cc(-c2ccc(C#N)cc2)cc(C([2H])([2H])[2H])c1Nc1ccnc(Nc2ccc(C#N)cc2)n1 | 7.57 | 697 | 1.83 | 55.1 | 3260 | 2.72 | 8.93 | 380 | 2.9 | 5980 | 68.8 | 16.7 | – | –
11 | [2H]C([2H])([2H])c1cc(/C=C/C#N)cc(C([2H])([2H])[2H])c1Nc1ccnc(Nc2ccc(C#N)cc2)n1 | 2.75 | 76.2 | 1.41 | – | – | 2.42 | 5.84 | 20 | 1.81 | 6590 | 13.2 | 22.8 | – | –
12 | [2H]C([2H])([2H])c1cc(C#N)cc(C([2H])([2H])[2H])c1Oc1nc(NC2CCN(Cc3ccc(C(N)=O)cc3)CC2)nc2sccc12 | 53.8 | 724 | 4.19 | 61.6 | > 57500 | 21.6 | 62.3 | 140 | 4.58 | > 241000 | 496 | – | – | –
13 | [2H]C([2H])([2H])c1cc(C#N)cc(C)c1Oc1nc(NC2CCN(Cc3ccc(S(N)(=O)=O)cc3)CC2)nc2sccc12 | 21.2 | 428 | 6.39 | 55.5 | > 35500 | 17.4 | 49.7 | 160 | 8.84 | > 227000 | 148 | – | – | –
14 | CC[C@H](C)C(=O)O[C@H]1C[C@@H](C)C=C2C=C[C@H](C)[C@H](CC[C@@H]3C[C@@H](O)CC(=O)O3)[C@H]21 [LOVASTATIN] | – | – | – | – | – | – | – | – | – | – | – | – | 33.3 | 100
15 | [2H]C([2H])([2H])c1cc(C#N)cc(C([2H])([2H])[2H])c1Oc1nc(NC2CCN(Cc3ccc(S(N)(=O)=O)cc3)CC2)nc2scnc12 | 8.05 | 46.4 | 2.16 | 46 | 8290 | 10.8 | 10.3 | 190 | 2.2 | 17900 | 86.4 | – | – | –
16 | [2H]C([2H])([2H])c1cc(C#N)cc(C([2H])([2H])[2H])c1Oc1nc(NC2CCN(Cc3ccc(S(N)(=O)=O)cc3)CC2)nc2sccc12 | 11.2 | 8.79 | 6.53 | 10.4 | > 34500 | 6.44 | 19.5 | 160 | 4.28 | > 225000 | 141 | – | – | –
17 | [2H]C([2H])([2H])c1cc(C#N)cc(C)c1Oc1nc(NC2CCN(Cc3ccc(S(N)(=O)=O)cc3)CC2)nc2scnc12 | 10.1 | 181 | 2.8 | 45.5 | 5320 | 10.9 | 28.1 | 150 | 4.39 | 14900 | 57.6 | – | – | –
18 | [2H]C([2H])([2H])c1cc(C#N)cc(C)c1Oc1nc(NC2CCN(Cc3ccc(S(N)(=O)=O)cc3)CC2)nc2ccccc12 | 12.9 | 44.3 | 3.07 | 54.2 | > 74600 | 8.11 | 10.6 | 210 | 6.92 | > 229000 | 245 | – | – | –
19 | [2H]C([2H])([2H])c1cc(-c2ccc(C#N)cc2)cc(C)c1Nc1ccnc(Nc2ccc(C#N)cc2)n1 | 6.14 | 626 | 2.5 | 57.5 | 2370 | 2.74 | 8.64 | 380 | 3.81 | 5940 | 58.6 | 16.6 | – | –
20 | [2H]C([2H])([2H])c1cc(C#N)cc(C)c1Oc1nc(NC2CCN(Cc3ccc(C(N)=O)cc3)CC2)nc2ccccc12 | 47 | 1270 | 5.4 | 67.8 | 27900 | 14.5 | 63.1 | 210 | 4.86 | 150000 | 1810 | – | – | –
21 | O=C1Nc2ccc(Cl)cc2[C@@](C#CC2CC2)(C(F)(F)F)O1 [EFAVIRENZ] | – | 203 | – | – | – | 41.8 | 8.32 | – | 99.2 | > 6340 | – | – | – | –
22 | [2H]C([2H])([2H])c1cc(C#N)cc(C([2H])([2H])[2H])c1Oc1nc(NC2CCN(Cc3ccc(C(N)=O)cc3)CC2)nc2ccsc12 | 46.8 | 78.2 | 5.11 | 57.6 | > 47200 | 44.3 | 59.8 | 140 | 6.75 | > 241000 | 1740 | – | – | –
23 | Cc1ccnc2c1NC(=O)c1cccnc1N2C1CC1 [NEVIRAPINE] | – | 7320 | 253 | > 15000 | – | 1270 | 237 | – | 4710 | > 15000 | > 15000 | – | – | –
